Measurements reported in patent US20060247187A1, “Attenuation of disorders by aminoglycosides” (priority 2005, published 2006).

Columns and labels:
[1] = system: Male Sprague-Dawley rats; experiment: Gentamicin nephrotoxicity model: serum and urine biochemistry, renal function, kidney weight after 8 days of treatment
Protocol: Group 1 (Gentamicin): These animals received timed daily subcutaneous injections of gentamicin (50 mg/kg/d) in divided doses, delivered during the resting period, for 8 consecutive days.
Group 3 (Sham): These animals received twice daily subcutaneous injections of equivalent amount of vehicle (0.9% NaCl) according to the same timed protocol for 8 consecutive days.
Kidneys were harvested and blood collections were performed. […] One kidney was immediately removed for histological examination.
(Roche Diagnostics, Basel, Switzerland). […] Gentamicin standards were prepared in normal rat sera.
Serum and urine creatinine were measured by HPLC.

[2] = system: Male Sprague-Dawley rats; experiment: Urinary nitrate/nitrite (NOx) excretion by Griess reaction; format: in vivo, rat; details: per mg creatinine, after treatment
Protocol: As a marker of renal NO generation, daily excretion of urinary nitrate/nitrite (NOx) was measured using the Griess reaction (Komers et al., 1994; Miranda et al., 2001). Briefly, 0.5 ml of urine was centrifuged at 10,000 g for 15 minutes, the supernatant removed and diluted fivefold using deionised water. From each sample 50 μl was dispensed into a 96-well plate followed by 50 μl of freshly prepared vanadium chloride solution (0.8 mg/ml in 1M HCl) and immediately followed by 50 μl of Griess reagent (2% sulphanilamide in 1.47M hydrochloric acid) and 0.1% N-(1-aphthyl)ethylenediamine dihydrochloride in deionised water. […] Each sample was assayed in triplicate. Urinary NOx excretion was expressed as μmol/mg creatinine.

[3] = system: Male Sprague-Dawley rats; experiment: Morphological examination of the kidney (PAS, propidium iodide apoptosis, GPX-3 in situ hybridization); format: in vivo, rat
Protocol: Paraffin embedded sections were stained with periodic acid-Schiff (PAS) and examined by light microscopy to determine the extent of gentamicin toxicity (Kopple et al., 2002). In addition, tubular apoptosis was assessed by staining for DNA fragmentation using propidium iodide. Briefly, sections (3 μm) from the same paraffin blocks used for PAS staining were de-paraffinised with xylene and rehydrated, soaked with PBS pH 7.4 and incubated for 10 minutes with propidium iodide 10 μg/ml and RNAse A 100 μg/ml at 37° C. Sections were subsequently washed extensively with PBS, rinsed with distilled water and mounted with an aqueous media (AFT, Behring Diagnostics, Somerville, N.J.). On a fluorescence microscope, renal tissue was identified on bright field and then, using a rhodamine filter set, the normal and apoptotic tubular nuclei were counted. Twenty cortical windows were assessed in each animal. The results were expressed as a mean number of fragmented and condensed nuclei (apoptotic cells) per window. As a marker of proximal tubular injury, renal gene expression of extracellular glutathione peroxidase, GPX-3 (Yazar et al., 2003) was also assessed in paraffin fixed sections by in situ hybridization

[4] = system: Male Sprague-Dawley rats; experiment: Oxidation, lipoxidation and glycation products (AOPP, MDA-linked fluorescence, AGE fluorescence, LMW-AGEs, CML staining)
Protocol: Serum and tissue advanced oxidation products (AOPP) were measured by spectrophotometric methods (Martin-Gallan et al., 2003). This assay largely detects the presence of protein dityrosine modifications (Witko-Sarsat et al., 2003). Briefly, 200 μl of homogenised renal tissue or serum was diluted 1:3 in PBS, 100 μL of 1.16 mol/L potassium iodide (KI, Sigma) were then added to each tube, followed two minutes later by 200 μL of concentrated acetic acid. […] Concentrations of AOPP were expressed as arbitrary units calibrated to a chloramine T standard.
Tissue-linked glycoxidation products were measured, based on tissue fluorescence using a flow injection assay (Wrobel et al., 1998). Briefly, renal tissue was enymatically hydrolysed using proteinase K. The solution was then centrifuged to remove sediment and the aqueous phase injected directly into a water column flowing through a fluorescence detector (Waters 470, Waters USA) and UV detector (Hewlett-Packard, USA) in series. Pentosidine-linked fluorescence was measured at excitation 325 nm with an emission at 385 nm (Meng et al., 2000). The level of lipid peroxidation was estimated by determining the malondialdehyde (MDA)-linked fluorescence (390 nm/emission 460 nm) (Meng et al., 1998). The values of fluorescence were corrected against those of the blanks containing the same concentration of proteinase K and adjusted for the peptide content using the absorbance at 280 nm. The data were expressed in arbitrary units, with […] being given the reference value of 1. Finally, paraffin sections were stained for CML-AGEs

[5] = system: Escherichia coli (ATCC 25922); experiment: Bactericidal studies: MIC of gentamicin in presence and absence of aminoguanidine; format: cell-based
Protocol: A standardised E coli (ATCC 25922) was then inoculated into the broth and the lowest concentration of gentamicin to inhibit the growth of the bacterium determined (MIC). Results are expressed in milligrams of gentamicin per litre. Studies were performed in duplicate on two separate occasions by a blinded operator. A clinically significant change was defined as an increase in the MIC by two or more doubling dilutions.

[6] = system: Male Sprague-Dawley rats; details: serum, after treatment
Protocol: Consequently, serum ACE activity was estimated in animals before and after administration of gentamicin using the synthetic ACE-specific substrate, hippuryl-histidyl-leucine (Shihabi and Scaro, 1981). The released product (His-Leu) was fluorimetrically measured after reaction with ophthaldehyde in time-fixed assays. Briefly, 20 μl of 10 times diluted plasma was mixed with 20 μl Hip-His-Leu (final conc.=1 mM) made up to 50 μl with 10 μL of 100 mM Tris-HCl, 300 mM NaCl, pH 8.3. The samples were then mixed and incubated in 37° C. water bath for 30 minutes. To detect the generated His-Leu, 120 μl of 0.3 N NaOH and 10 μl o-phthaldehyde were then added and the samples briefly vortexed and incubated at room temperature for 10 minutes. To terminate the derivitisation reaction, 20 μl of 3N HCl was added and the samples centrifuged for 5 minutes at 15, 000 rpm to remove insoluble residue. The resulting supernatant was transferred to a black 96 well plate and fluorescence read at excitation=355 nm, emission=485 nm in a fmax fluorescence detector (Molecular Biosystems, USA). Results were corrected for blank fluorescence detected in the absence of Hip-His-Leu. Results are expressed as nmol of His-Leu generated per minute of reaction time per ml of plasma (nmol/min/ml).

[7] = prospective studies, gentamicin for over 7 days; cited from earlier work
[8] = Serum and renal cortical gentamicin levels; format: in vivo, rat
Protocol: (Roche Diagnostics, Basel, Switzerland). […] Gentamicin standards were prepared in normal rat sera. […] To measure the gentamicin concentrations in the renal cortex, the kidney was processed and analysed. The upper pole of the vertically divided right kidney was removed and snap-frozen at minus 80° C. until use. […] After centrifugation, a 100 μl aliquot of the supernatant was used immediately for gentamicin determination by HPLC. […] Fluorescence detection was set at excitation 340 nm, emission 418 nm. The […] gentamicin peak was used to quantify the total gentamicin content. Calibration curves of the components were prepared in a drugfree supernatant of the renal homogenates and were linear over the concentration range 50-500 μg/ml. […] Renal cortical gentamicin concentrations were expressed per milligram of renal cortical protein.

[9] = cited from earlier work
[10] = system: Male Sprague-Dawley rats; experiment: Serum and urine parameters after aminoguanidine pre-treatment but before gentamicin therapy; details: p<0.05
Protocol: Male Sprague-Dawley rats were randomly assigned to one of three groups:
Group 2 (Gentamicin+aminoguanidine): rats received aminoguanidine 4 g/L in their drinking water for 2 weeks, prior to gentamicin dosing as described above.
Prior to gentamicin dosing and on day 7 of the study, animals were placed individually in metabolic cages and 24 h urine collected and food intake recorded. Blood was collected into heparinised tubes, after being obtained from the tail of each rat, at baseline and on days 2 and 5. The blood samples were always obtained before the daily injections were given, as well as being taken 24 hours following the last injection and at the time of sacrifice. […]
Standard physiological and biochemical parameters including body weight and food and water intake, were measured before and after gentamicin dosing regimens. […] Serum gentamicin was measured in serum by a polarisation fluorescence immunoassay in a TDx analyser (Abbott Diagnostics, Abbott Park, Ill., USA). […] To quantify enzymuria, urinary excretion of alanine transaminase (ALT), aspartate transferase (AST), alkaline phosphatase (AP) and lactate dehydrogenase (LDH) were measured using a Hitachi 747 Automatic Analyser, as above. […] Therefore the urinary excretion of the electrolytes were measured in this experimental protocol and expressed as the fractional excretion (FE), which is calculated as: FEx(%)=(Ux×PCr)/(Px×UCr) […]

[11] = following 8-days of treatment, Mean ± SEM
[12] = serum, following 8-days of treatment, Mean ± SEM

## CNC(C)C1CCC(N)C(OC2C(N)CC(N)C(OC3OCC(C)(O)C(NC)C3O)C2O)O1 (stereo not drawn) [Gentamicin, gentamicin]
[1]; FIG. 2, aminoguanidine group also received gentamicin
  Normalised kidney weight: significantly higher
[1]; after 8 days gentamicin, aminoguanidine group also received gentamicin
  Renal blood flow as estimated by the clearance of endogenous hippurate: 8.1 ± 1.1 mL/min
[1]; following 8-days of treatment, gentamicin 50 mg/kg/d s.c., Mean ± SEM
  Urine Volume: 29 ± 6 mL/day
[1]; [11]
  FeCa: 6 ± 3%
  FeK: 70 ± 20 %
  FeMg: 21 ± 5 %
  Urine ALT: 10.5 ± 4.6 U/ml
  Urine AP: 119 ± 29 U/ml
  Urine AST: 147 ± 62 U/ml
  Urine LDH: 489 ± 100 U/ml
[1]; following 8-days of treatment, Mean ± SEM, none in table head
  Creatinine clearance: 1.3 ± 0.3 mL/min
[1]; gentamicin alone, 8 days
  Fall in creatinine clearance compared to untreated animals: greater than 50%
[1]; marker of renal injury, after treatment
  Serum LDH: 380 ± 76 IU/ml
[1]; [12]
  Creatinine: 122 ± 55 µM
  Urea: 20.1 ± 5.6 mM
[2]
  Urine NOx: 4.1 ± 0.4 µmol/mg
[3]; FIG. 3, after 8 days of treatment
  Tubular necrosis (PAS histology of renal cortex): extensive and marked tubular necrosis
[3]; FIG. 4, in situ hybridization, aminoguanidine group also received gentamicin
  Tubular expression of glutathione peroxidase-3: significantly reduced
[3]; tubular nuclei, propidium iodide, aminoguanidine group also received gentamicin
  Fragmented and condensed nuclei (apoptotic cells) per field: 12±2 per field
[4]; FIG. 7, aminoguanidine group also received gentamicin
  Staining for CML-AGE in kidney: substantially increased
[4]; FIG. 8
  Serum AOPPs: elevated to approximately the same extent
[4]; FIG. 8, compared to sham animals or those receiving aminoguanidine
  Serum MDA-linked fluorescence: elevated
[4]; after 8 days, aminoguanidine group also received gentamicin
  Circulating levels of LMW-AGEs: elevated to over twice the level seen in untreated animals
[4]; arbitrary units, untreated 1.0±0.3, p=NS
  Cortical AGE-fluorescence: 1.2±0.3
[5]; in the absence of aminoguanidine
  MIC for gentamicin: 0.2 µg/mL
[5]; in the presence of aminoguanidine at 10 μg/ml
  MIC for gentamicin: 0.3 µg/mL
[5]; in the presence of aminoguanidine at 100 μg/ml
  MIC for gentamicin: 0.2 µg/mL
[5]; in the presence of aminoguanidine at 1 mg/ml
  MIC for gentamicin: 0.5 µg/mL
[6]
  ACE activity: 5.1 ± 0.4 nmol/mL/min
[7]
  Patients showing signs of nephrotoxicity: up to 50%

## N=C(N)NN [aminoguanidine]
[1]; rat, in vivo
  Normalised kidney weight: reduced the renal weight
  Renal blood flow as estimated by the clearance of endogenous hippurate: 12.1 ± 1.1 mL/min
[3]; rat, in vivo
  Fragmented and condensed nuclei (apoptotic cells) per field: 1-2 per field
  Tubular expression of glutathione peroxidase-3: not significantly changed
[8]; FIG. 5, after 8 days, aminoguanidine co-administered with gentamicin, vs gentamicin alone, p<0.001
  Reduction of gentamicin content of the renal cortex: approximately two thirds
[8]; effect of co-administration of aminoguanidine
  Serum gentamicin levels at day 2 and day 5: unaffected
[4]; rat, in vivo
  Staining for CML-AGE in kidney: able to reduce staining for CML-AGE
[9]
  Half life: 4 h
[10]
  Urinary potassium excretion: reduced
